From US20140315901A1, “Arylpyrrolopyridine derived compounds as LRRK2 inhibitors” (H. Lundbeck A/S, priority 2013, published 2014)

Columns and labels:
LRRK2 G2019S = biological target: T1, LRRK2 G2019S (Homo sapiens, UniProt Q5S007, G2019S); experiment: LanthaScreen TR-FRET LRRK2 G2019S kinase activity assay; format: biochemical; conditions: 250 pM LRRK2 G2019S kinase (residues 970 to 2527), 1.3 mM ATP, 0.4 μM fluorescein-LRRKtide, 2 hours at 30° C.; logarithmic average
T1 construct: purchased Invitrogen (Life Technologies Corporation)
T1 sequence (Q5S007 970-2527 G2019S): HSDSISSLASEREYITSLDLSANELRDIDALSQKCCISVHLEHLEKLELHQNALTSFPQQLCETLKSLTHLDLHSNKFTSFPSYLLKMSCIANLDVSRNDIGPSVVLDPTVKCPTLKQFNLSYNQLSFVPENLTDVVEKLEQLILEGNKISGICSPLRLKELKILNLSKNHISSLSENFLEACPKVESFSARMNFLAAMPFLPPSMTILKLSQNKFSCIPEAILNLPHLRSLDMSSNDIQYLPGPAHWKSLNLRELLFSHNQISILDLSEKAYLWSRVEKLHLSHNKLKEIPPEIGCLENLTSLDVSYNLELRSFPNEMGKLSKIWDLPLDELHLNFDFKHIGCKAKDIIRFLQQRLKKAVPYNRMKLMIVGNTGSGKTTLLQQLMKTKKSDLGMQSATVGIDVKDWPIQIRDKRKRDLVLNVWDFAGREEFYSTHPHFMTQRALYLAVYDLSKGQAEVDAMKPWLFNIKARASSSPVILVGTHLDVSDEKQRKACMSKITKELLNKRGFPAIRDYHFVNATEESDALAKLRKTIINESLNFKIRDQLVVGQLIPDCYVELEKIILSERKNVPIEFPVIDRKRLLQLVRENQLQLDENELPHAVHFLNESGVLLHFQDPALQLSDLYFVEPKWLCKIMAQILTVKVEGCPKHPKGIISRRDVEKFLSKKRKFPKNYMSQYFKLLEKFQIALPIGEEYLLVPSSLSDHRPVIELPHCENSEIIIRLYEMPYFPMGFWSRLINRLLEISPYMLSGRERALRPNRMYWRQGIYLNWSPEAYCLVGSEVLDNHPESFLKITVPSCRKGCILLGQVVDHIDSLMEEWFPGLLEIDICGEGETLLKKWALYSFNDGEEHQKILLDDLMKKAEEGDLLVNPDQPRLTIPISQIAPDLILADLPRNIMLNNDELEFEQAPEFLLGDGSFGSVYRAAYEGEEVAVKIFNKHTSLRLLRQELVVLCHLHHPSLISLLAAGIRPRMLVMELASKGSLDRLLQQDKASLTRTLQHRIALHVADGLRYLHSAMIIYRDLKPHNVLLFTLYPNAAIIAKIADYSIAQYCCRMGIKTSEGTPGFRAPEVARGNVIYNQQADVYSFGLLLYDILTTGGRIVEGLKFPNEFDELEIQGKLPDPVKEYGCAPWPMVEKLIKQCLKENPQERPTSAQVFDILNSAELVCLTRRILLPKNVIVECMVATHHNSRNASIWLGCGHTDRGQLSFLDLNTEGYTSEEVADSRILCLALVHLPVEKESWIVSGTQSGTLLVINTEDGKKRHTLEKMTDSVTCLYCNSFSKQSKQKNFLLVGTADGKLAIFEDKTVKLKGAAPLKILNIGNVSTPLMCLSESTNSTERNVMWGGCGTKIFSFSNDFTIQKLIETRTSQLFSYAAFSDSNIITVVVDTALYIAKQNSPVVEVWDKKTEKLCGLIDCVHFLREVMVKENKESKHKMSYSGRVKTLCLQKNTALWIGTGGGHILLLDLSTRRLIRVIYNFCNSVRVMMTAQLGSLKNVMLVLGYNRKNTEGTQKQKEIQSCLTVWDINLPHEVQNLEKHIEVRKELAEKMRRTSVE
Description: (§1) LRRK2 kinase activity is measured using a LanthaScreen kinase activity assay available from Invitrogen (Life Technologies Corporation). The assay is a homogeneous time resolved-fluorescence resonance energy transfer (TR-FRET) assay that measures phosphorylation of a fluorescein-labelled peptide substrate (fluorescein-LRRKtide, fluorescein-[…]) (SEQ ID NO 1) as a result of LRRK2 kinase activity. The phosphorylated peptide is recognized by a terbium-labelled phospho-specific anti-LRRKtide antibody and, subsequently, the phosphorylated LRRKtide can be quantified by the extent of TR-FRET between the terbium donor and fluorescein acceptor.
(§2) The LRRK2 kinase is obtained from Invitrogen (Life Technologies Corporation) and comprises residues 970 to 2527 of the full length human wild-type LRRK2 kinase or a similar sequence with the G2019S mutation. As discussed above, this mutation increases the kinase activity relative to the wild-type. The kinase reactions are performed in a 20 μL volume in 384-well plates. The kinase reaction buffer consists of 50 mM Tris pH 8.5, 0.01% BRIJ-35, 10 mM MgCl2, 1 mM EGTA, and 2 mM DTT.
(§3) In the assay, 1 nM LRRK2 WT or 250 pM LRRK2 G2019S kinase is incubated with the test compound (typically at 0 to 30 μM) for 30 minutes before the kinase reaction is initiated by addition of 1.3 mM ATP and 0.4 μM fluorescein-LRRKtide. The reaction mixture (20 μl total volume) is incubated for 2 hours at 30° C. before the reaction is terminated by addition of 10 mM EDTA and 1 nM terbium-labelled anti-phospho-LRRKtide antibody (final volume […]). The mixture is further incubated for 30 minutes at RT. TR-FRET is measured by excitation of the terbium-donor with 340 nm light and subsequent (delay time 100 μs) measurement of terbium and fluorescein emission at 495 nm and 520 nm, respectively, over a time window of 1000 μs. The measurement is repeated 10 times for fluorescein and 10 times for terbium emission with a 2000 μs time window between repeats. TR-FRET measurements are performed on a Biomek Synergy plate. The TR-FRET signal is calculated as the emission-ratio at 520 nm over […].
(§4) Test compound potency (IC50) was estimated by nonlinear regression using the sigmoidal dose-response (variable slope) using Xlfit 4 (IDBS, Guildford, Surrey, UK, model 205). y=(A+((B−A)/(1+((C/x)̂D)))), where y is the normalized TR-TRET ratio measurement for a given concentration of test compound, x is the concentration of test compound, A is the estimated efficacy (% inhibition) at infinite compound dilution, and B is the maximal efficacy (% inhibition). C is the IC50 value and D is the Hill slope coefficient. IC50 estimates were obtained from independent experiment and the logarithmic average was calculated.

LRRK2 WT = biological target: T2, LRRK2 WT (Homo sapiens, UniProt Q5S007); experiment: LanthaScreen TR-FRET LRRK2 wild-type kinase activity assay; format: biochemical; conditions: 1 nM LRRK2 WT kinase (residues 970 to 2527), 1.3 mM ATP, 0.4 μM fluorescein-LRRKtide, 2 hours at 30° C.; logarithmic average
T2 construct: comprises residues 970 to 2527 of the full length human wild-type LRRK2 kinase; purchased Invitrogen (Life Technologies Corporation)
T2 sequence (Q5S007 970-2527): as the sequence (Q5S007 970-2527 G2019S) above, with S1050G counted along it
Description: as §1, §2, §3, §4

| IC50 (LRRK2 G2019S) [nM] | IC50 (LRRK2 WT) [nM] | SMILES |
| --- | --- | --- |
| 201 | 247 | COc1cccc(-c2ccnc3[nH]cc(C#N)c23)c1 [Example 1, 4-(3-Methoxyphenyl)-1H-pyrrolo[2,3-b]pyridine-3-carbonitrile] |
| 252 | 266 | CCc1cccc(-c2ccnc3[nH]cc(C#N)c23)c1 [Example 3, 4-(3-Ethylphenyl)-1H-pyrrolo[2,3-b]pyridine-3-carbonitrile] |
| 851 | 1280 | N#Cc1c[nH]c2nccc(-c3ccsc3)c12 [Example 4, 4-(Thiophen-3-yl)-1H-pyrrolo[2,3-b]pyridine-3-carbonitrile] |
| 1310 | 5440 | N#Cc1c[nH]c2nccc(-c3ccc(CN4CCOCC4)cc3)c12 [Example 5, 4-[4-(Morpholin-4-ylmethyl)phenyl]-1H-pyrrolo[2,3-b]pyridine-3-carbonitrile] |
| 650 | 3870 | N#Cc1c[nH]c2nccc(-c3ccn(CN4CCOCC4)c3)c12 [Example 6, 4-[1-(Morpholin-4-ylmethyl)pyrrol-3-yl]-1H-pyrrolo[2,3-b]pyridine-3-carbonitrile] |
| 78 | 620 | Cc1cc(-c2ccnc3[nH]cc(C#N)c23)ccc1CN1CCOCC1 [Example 7, 4-[3-Methyl-4-(morpholin-4-ylmethyl)phenyl]-1H-pyrrolo[2,3-b]pyridine-3-carbonitrile] |
| 288 | 549 | Cc1cc(-c2ccnc3[nH]cc(C#N)c23)ccc1CN(C)C [Example 8, 4-{4-[(Dimethylamino)methyl]-3-methylphenyl}-1H-pyrrolo[2,3-b]pyridine-3-carbonitrile] |
| 26 | 149 | CCc1cc(-c2ccnc3[nH]cc(C#N)c23)ccc1CN1CCOCC1 [Example 9, 4-[3-Ethyl-4-(morpholin-4-ylmethyl)phenyl]-1H-pyrrolo[2,3-b]pyridine-3-carbonitrile] |
| 154 | 919 | COc1cc(-c2ccnc3[nH]cc(C#N)c23)ccc1CN1CCOCC1 [Example 10, 4-[3-Methoxy-4-(morpholin-4-ylmethyl)phenyl]-1H-pyrrolo[2,3-b]pyridine-3-carbonitrile] |
| 240 | 216 | N#Cc1c[nH]c2nc(N)cc(-c3ccccc3)c12 [Example 11, 6-Amino-4-phenyl-1H-pyrrolo[2,3-b]pyridine-3-carbonitrile] |
| 17 | 15 | Cc1cccc(-c2cc(N)nc3[nH]cc(C#N)c23)c1 [Example 12, 6-Amino-4-(3-methylphenyl)-1H-pyrrolo[2,3-b]pyridine-3-carbonitrile] |
| 58 | 48 | Cn1ccc(Nc2cc(-c3ccccc3)c3c(C#N)c[nH]c3n2)n1 [Example 13, 6-[(1-Methylpyrazol-3-yl)amino]-4-phenyl-1H-pyrrolo[2,3-b]pyridine-3-carbonitrile] |
| 1 | 4 | Cc1cc(-c2cc(Nc3ccn(C)n3)nc3[nH]cc(C#N)c23)ccc1CN1CCOCC1 [Example 15, 4-[3-Methyl-4-(morpholin-4-ylmethyl)phenyl]-6-[(1-methylpyrazol-3-yl)amino]-1H-pyrrolo[2,3-b]pyridine-3-carbonitrile] |
| 164 | 97 | Cn1cc(Nc2cc(-c3ccccc3)c3c(C#N)c[nH]c3n2)cn1 [Example 16, 6-[(1-Methylpyrazol-4-yl)amino]-4-phenyl-1H-pyrrolo[2,3-b]pyridine-3-carbonitrile] |
| 527 | 340 | N#Cc1c[nH]c2nc(Nc3ccccn3)cc(-c3ccccc3)c12 [Example 17, 4-Phenyl-6-(pyridin-2-ylamino)-1H-pyrrolo[2,3-b]pyridine-3-carbonitrile] |
| 509 | 358 | Cc1cncc(-c2cc(Nc3nn(C)cc3C(F)(F)F)nc3[nH]cc(C#N)c23)c1 [Example 18, 6-{[1-Methyl-4-(trifluoromethyl)-1H-pyrazol-3-yl]amino}-4-(5-methylpyridin-3-yl)-1H-pyrrolo[2,3-b]pyridine-3-carbonitrile] |
| 215 | 145 | Cc1ccnc(-c2cc(Nc3nn(C)cc3Cl)nc3[nH]cc(C#N)c23)c1 [Example 19, 6-[(4-Chloro-1-methyl-1H-pyrazol-3-yl)amino]-4-(4-methylpyridin-2-yl)-1H-pyrrolo[2,3-b]pyridine-3-carbonitrile] |
| 575 | 393 | Cc1cccc(-c2cc(Nc3nn(C)cc3C(F)(F)F)nc3[nH]cc(C#N)c23)n1 [Example 21, 6-{[1-Methyl-4-(trifluoromethyl)-1H-pyrazol-3-yl]amino}-4-(6-methylpyridin-2-yl)-1H-pyrrolo[2,3-b]pyridine-3-carbonitrile] |

| SMILES | IC50 (LRRK2 G2019S) [nM] | IC50 (LRRK2 WT) [nM] |
| --- | --- | --- |
| Cc1cccc(-c2ccnc3[nH]cc(C#N)c23)c1 [Example 2, 4-(3-Methylphenyl)-1H-pyrrolo[2,3-b]pyridine-3-carbonitrile] | 195 | 170 |
| Cc1cccc(-c2cc(Nc3ccn(C)n3)nc3[nH]cc(C#N)c23)c1 [Example 14, 4-(3-Methylphenyl)-6-[(1-methylpyrazol-3-yl)amino]-1H-pyrrolo[2,3-b]pyridine-3-carbonitrile] | 2 | 1 |
| Cc1cccc(-c2cc(Nc3nn(C)cc3C)nc3[nH]cc(C#N)c23)n1 [Example 20, 6-[(1,4-Dimethyl-1H-pyrazol-3-yl)amino]-4-(6-methylpyridin-2-yl)-1H-pyrrolo[2,3-b]pyridine-3-carbonitrile] | 50 | 36 |
| Cc1cncc(-c2cc(Nc3ccn(C)n3)nc3[nH]cc(C#N)c23)c1 [Example 22, 6-[(1-Methyl-1H-pyrazol-3-yl)amino]-4-(5-methylpyridin-3-yl)-1H-pyrrolo[2,3-b]pyridine-3-carbonitrile] | 37 | 27 |
| Cc1cc(-c2cc(Nc3nn(C)cc3C)nc3[nH]cc(C#N)c23)ccn1 [Example 23, 6-[(1,4-Dimethyl-1H-pyrazol-3-yl)amino]-4-(2-methylpyridin-4-yl)-1H-pyrrolo[2,3-b]pyridine-3-carbonitrile] | 108 | 215 |
